Assay results published in patent US8940742B2, “Heterocyclic compounds and uses thereof” (Infinity Pharmaceuticals, Inc., priority 2012, dated 2015).

Tests used:
[1] = target: T1, Raw264.7 p110 γ (Mus musculus, UniProt Q9JHG7); test: Raw264.7 p110 γ cellular assay (phospho-AKT); assay type: cell-based; details: serum-starved RAW264.7 cells stimulated with C5a
T1 construct: reduction of phospho-AKT in stimulated RAW 264.7 cells; endogenous in cells; host or cells: RAW264.7 macrophages
From the text: (b) PI3K-γ Selective Assay
Briefly, serum-starved PAW264.7 cells are stimulated with a known GPCR agonist C5a. […] Cells can be treated with test compounds prior to, simultaneously with, or subsequent to the stimulation by C5a. RAW 264.7 cells respond to the complement component fragment C5a through activation of the C5a receptor, and the C5a receptor activates macrophages and induces cell migration.

[2] = target: T2, PI3K β (Homo sapiens, UniProt P42338); test: PI3-Kinase Promega ADP-Glo Max assay; assay type: biochemical; details: 40 nM kinase, 3 mM ATP, 500 uM diC8-PtdInsP
T2 construct: purchased Millipore
T2 sequence (P42338 whole entry): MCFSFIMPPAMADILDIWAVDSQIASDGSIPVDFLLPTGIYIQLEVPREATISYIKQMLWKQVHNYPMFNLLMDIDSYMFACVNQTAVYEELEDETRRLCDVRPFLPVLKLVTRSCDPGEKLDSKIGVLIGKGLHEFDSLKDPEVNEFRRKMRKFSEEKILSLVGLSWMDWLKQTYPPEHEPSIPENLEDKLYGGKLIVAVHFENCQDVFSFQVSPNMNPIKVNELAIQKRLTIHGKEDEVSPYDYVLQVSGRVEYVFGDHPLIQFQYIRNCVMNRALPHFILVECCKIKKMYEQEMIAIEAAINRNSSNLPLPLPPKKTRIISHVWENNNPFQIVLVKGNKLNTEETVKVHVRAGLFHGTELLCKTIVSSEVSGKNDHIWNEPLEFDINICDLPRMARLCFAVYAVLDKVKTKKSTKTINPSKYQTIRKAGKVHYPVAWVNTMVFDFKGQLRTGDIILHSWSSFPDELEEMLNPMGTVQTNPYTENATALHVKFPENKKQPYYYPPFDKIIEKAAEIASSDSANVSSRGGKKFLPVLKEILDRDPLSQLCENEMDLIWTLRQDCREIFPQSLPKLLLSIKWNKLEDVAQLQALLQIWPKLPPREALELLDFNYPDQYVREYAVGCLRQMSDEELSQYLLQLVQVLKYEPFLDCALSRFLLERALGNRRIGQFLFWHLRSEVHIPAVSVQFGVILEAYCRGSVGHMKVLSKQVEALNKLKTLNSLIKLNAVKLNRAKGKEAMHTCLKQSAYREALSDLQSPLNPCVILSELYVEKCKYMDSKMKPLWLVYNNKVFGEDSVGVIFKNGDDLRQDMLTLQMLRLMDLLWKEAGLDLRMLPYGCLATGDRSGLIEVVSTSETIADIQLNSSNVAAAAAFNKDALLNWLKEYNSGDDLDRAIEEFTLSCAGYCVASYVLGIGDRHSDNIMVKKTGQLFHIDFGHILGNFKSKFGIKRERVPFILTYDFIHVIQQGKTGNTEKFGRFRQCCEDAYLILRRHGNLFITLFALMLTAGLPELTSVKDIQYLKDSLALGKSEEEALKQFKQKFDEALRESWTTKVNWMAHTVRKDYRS
T2 sequence (P27986 whole entry partner): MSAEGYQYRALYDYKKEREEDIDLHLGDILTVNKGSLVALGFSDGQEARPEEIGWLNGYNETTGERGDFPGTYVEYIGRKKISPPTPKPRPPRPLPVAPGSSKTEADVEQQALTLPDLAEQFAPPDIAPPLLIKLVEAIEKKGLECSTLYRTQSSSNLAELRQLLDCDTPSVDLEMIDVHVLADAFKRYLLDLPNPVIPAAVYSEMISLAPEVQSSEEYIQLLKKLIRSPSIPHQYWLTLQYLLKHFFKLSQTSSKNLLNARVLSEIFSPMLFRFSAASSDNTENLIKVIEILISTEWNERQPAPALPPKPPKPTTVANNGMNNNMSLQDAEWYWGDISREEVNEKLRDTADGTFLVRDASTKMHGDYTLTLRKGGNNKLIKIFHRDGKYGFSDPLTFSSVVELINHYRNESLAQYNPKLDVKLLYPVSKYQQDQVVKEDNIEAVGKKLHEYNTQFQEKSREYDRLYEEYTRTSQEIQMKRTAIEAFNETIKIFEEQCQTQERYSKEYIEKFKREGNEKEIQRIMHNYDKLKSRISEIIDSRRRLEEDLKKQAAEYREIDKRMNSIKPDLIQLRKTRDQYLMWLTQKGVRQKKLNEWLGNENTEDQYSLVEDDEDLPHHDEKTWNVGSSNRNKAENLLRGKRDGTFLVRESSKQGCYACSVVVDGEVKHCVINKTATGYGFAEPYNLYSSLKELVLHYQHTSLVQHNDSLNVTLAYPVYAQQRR
Protocol: (§1) Promega ADP-Glo Max assay kit (Cat. No. V7002) was utilized to determine IC50 values for α, β, δ and γ isoforms of human Class I PI3 kinases (Millipore). Samples of kinase (20 nM α or δ, 40 nM β or γ isoform) were incubated with compound for 15 minutes at room temperature in reaction buffer (15 mM HEPES pH 7.4, 20 mM NaCl, 1 mM EGTA, 0.02% Tween 20, 10 mM MgCl2, 0.2 mg/mL bovine-γ-globulins) followed by addition of ATP/diC8-PtdInsP mixture to give final concentrations of 3 mM ATP and 500 uM diC8-PtdInsP. Reactions were incubated at room temperature for 2 hours followed by addition of 25 uL of stop solution. After a 40-minute incubation at room temperature, 50 uL of Promega detection mix was added followed by incubation for 1 hour at room temperature. Plates were then read on Envision plate reader in luminescence mode. Data was converted to % inhibition using the following equation below:
(§2) [formula] where S is the sample luminescence, Pos is a positive control without added PI3K, Neg is the negative control without added compound. Data was then plotted as % inhibition vs compound concentration. Data fit to 4 parameter logistic equation to determine IC50 values: […]
(§3) Certain compounds provided herein were tested in PI3-Kinase Promega Assay using procedures as described above to determine IC50 values for α, β, δ and/or γ isoforms.

[3] = target: T3, PI3K δ (Homo sapiens, UniProt O00329); test: PI3-Kinase Promega ADP-Glo Max assay; assay type: biochemical; details: 20 nM kinase, 3 mM ATP, 500 uM diC8-PtdInsP
T3 construct: purchased Millipore
Protocol: as §1, §2, §3

[4] = target: T4, PI3K α (Homo sapiens, UniProt P42336); test: PI3-Kinase Promega ADP-Glo Max assay; assay type: biochemical; details: 20 nM kinase, 3 mM ATP, 500 uM diC8-PtdInsP
T4 construct: purchased Millipore
T4 sequence (P42336 whole entry): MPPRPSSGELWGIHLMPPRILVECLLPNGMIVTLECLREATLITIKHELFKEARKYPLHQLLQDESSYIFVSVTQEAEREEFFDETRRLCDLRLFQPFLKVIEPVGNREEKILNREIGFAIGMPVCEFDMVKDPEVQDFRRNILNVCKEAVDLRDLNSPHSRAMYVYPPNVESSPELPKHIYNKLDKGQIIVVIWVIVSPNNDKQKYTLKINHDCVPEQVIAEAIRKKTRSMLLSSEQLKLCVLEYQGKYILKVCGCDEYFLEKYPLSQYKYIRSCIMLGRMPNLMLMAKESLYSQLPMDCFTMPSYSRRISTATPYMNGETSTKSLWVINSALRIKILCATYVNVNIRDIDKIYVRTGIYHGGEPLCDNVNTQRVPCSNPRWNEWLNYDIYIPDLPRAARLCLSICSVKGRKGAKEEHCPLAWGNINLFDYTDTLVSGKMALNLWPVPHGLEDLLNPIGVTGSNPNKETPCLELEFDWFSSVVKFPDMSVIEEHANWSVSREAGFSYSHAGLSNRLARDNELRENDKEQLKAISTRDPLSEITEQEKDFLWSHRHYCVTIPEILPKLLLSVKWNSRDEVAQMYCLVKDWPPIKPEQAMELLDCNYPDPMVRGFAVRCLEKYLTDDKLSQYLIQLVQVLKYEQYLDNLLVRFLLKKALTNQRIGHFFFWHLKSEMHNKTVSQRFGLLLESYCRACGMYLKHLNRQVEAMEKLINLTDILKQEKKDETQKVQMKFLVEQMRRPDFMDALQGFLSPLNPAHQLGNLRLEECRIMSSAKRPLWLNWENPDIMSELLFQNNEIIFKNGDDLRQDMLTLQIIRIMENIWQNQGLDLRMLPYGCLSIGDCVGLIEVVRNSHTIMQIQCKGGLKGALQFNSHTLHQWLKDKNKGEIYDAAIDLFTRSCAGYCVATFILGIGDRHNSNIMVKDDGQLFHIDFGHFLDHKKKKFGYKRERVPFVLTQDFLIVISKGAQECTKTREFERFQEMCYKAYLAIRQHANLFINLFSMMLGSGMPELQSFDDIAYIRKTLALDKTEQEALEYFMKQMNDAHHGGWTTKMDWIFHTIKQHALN
T4 sequence (P27986 whole entry partner): as the sequence (P27986 whole entry partner) above
Protocol: as §1, §2, §3

[5] = target: RAJI p110 δ (Homo sapiens, UniProt O00329); test: RAJI p110 δ cellular assay (phospho-AKT);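 note: potency based on lowered phosphorylated AKT in RAJI cells, as a readout of PI3K-δ dependent B-cell receptor signaling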
From the text: (a) PI3K-δ Selective Assay
Reduction of phospho-AKT is indicative of compounds that may inhibit B-cell proliferation and function in certain diseases.

[6] = target: T5, PI3K γ (Homo sapiens, UniProt P48736); test: PI3-Kinase Promega ADP-Glo Max assay; assay type: biochemical; details: 40 nM kinase, 3 mM ATP, 500 uM diC8-PtdInsP
T5 construct: purchased Millipore
T5 sequence (P48736 whole entry): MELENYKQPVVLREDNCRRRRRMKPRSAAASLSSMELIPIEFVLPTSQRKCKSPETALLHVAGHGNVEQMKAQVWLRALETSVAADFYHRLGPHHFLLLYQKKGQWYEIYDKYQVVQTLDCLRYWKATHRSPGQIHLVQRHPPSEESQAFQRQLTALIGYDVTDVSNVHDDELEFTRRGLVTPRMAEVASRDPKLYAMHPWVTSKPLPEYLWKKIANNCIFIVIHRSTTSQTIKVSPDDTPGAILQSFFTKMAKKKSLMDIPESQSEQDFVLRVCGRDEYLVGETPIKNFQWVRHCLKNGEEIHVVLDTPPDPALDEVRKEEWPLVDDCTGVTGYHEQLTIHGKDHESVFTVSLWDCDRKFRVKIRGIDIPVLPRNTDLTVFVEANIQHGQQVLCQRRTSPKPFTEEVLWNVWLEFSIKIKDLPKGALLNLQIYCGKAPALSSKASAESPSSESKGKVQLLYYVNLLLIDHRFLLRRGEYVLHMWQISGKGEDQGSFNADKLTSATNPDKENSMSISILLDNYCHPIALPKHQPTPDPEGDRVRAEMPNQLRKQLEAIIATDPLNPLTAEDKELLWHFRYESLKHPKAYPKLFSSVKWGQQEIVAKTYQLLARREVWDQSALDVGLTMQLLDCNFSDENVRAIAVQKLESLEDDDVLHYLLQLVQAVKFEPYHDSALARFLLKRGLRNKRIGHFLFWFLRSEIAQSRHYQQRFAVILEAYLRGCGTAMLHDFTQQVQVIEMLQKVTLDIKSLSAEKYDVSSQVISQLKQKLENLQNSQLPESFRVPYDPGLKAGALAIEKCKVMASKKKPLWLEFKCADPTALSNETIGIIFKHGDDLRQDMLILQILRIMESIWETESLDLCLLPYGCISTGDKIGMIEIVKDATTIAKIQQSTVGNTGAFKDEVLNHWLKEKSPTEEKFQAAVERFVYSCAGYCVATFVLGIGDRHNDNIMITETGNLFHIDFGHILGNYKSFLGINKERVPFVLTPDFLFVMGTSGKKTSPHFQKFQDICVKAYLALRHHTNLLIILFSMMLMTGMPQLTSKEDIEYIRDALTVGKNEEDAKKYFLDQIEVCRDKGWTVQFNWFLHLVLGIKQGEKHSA
Protocol: Promega ADP-Glo Max assay kit (Cat. No. V7002) was utilized to determine IC50 values for α, β, δ and γ isoforms of human Class I PI3 kinases (Millipore). […] Reactions were incubated at room temperature for 2 hours followed by addition of 25 uL of stop solution. After a 40-minute incubation at room temperature, 50 uL of Promega detection mix was added followed by incubation for 1 hour at room temperature. Plates were then read on Envision plate reader in luminescence mode. Data was converted to % inhibition using the following equation below:
[formula] where S is the sample luminescence, Pos is a positive control without added PI3K, Neg is the negative control without added compound. Data was then plotted as % inhibition vs compound concentration.
as §3

T1 sequence (Q9JHG7 whole entry): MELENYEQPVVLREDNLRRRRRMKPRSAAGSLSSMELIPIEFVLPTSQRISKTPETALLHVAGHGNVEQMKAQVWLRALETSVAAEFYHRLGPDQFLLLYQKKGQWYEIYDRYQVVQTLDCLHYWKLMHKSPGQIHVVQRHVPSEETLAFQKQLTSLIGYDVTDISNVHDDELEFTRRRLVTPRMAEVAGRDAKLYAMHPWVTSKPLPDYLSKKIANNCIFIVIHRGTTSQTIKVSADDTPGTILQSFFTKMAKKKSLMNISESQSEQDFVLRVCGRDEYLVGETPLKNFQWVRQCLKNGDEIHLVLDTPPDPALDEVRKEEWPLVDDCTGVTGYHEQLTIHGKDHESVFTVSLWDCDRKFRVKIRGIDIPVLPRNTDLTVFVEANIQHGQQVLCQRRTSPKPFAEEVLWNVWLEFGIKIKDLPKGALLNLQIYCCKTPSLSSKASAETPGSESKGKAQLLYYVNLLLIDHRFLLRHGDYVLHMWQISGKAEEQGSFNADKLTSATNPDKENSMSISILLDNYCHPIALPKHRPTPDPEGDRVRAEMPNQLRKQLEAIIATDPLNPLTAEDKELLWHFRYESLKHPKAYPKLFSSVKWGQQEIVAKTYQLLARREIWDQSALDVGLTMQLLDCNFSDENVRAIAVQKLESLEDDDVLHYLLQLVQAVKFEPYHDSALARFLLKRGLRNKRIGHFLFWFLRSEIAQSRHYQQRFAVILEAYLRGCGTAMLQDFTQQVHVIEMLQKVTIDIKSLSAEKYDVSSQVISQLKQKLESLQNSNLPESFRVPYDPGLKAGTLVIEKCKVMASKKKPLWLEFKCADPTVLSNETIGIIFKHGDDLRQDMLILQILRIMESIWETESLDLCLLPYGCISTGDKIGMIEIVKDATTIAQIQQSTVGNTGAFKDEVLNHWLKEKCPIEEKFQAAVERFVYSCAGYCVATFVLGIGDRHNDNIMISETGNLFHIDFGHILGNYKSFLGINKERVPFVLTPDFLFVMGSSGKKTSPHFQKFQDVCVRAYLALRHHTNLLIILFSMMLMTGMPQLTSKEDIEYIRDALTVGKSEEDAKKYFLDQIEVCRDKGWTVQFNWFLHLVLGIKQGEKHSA

Row | Compound | IC50 [1] [nM] | IC50 [2] [nM] | IC50 [3] [nM] | IC50 [4] [nM] | IC50 [5] [nM] | IC50 [6] [nM]
1 | C[C@H](NC(=O)c1c(N)nn2cccnc12)c1cc2scc(Cl)c2c(=O)n1-c1ccccc1 [Compound 212] | < 100 | 100 to 1000 | 100 to 1000 | 1000 to 10000 | < 100 | < 100
2 | CC(C)Oc1cc(-c2cccc3cc([C@H](C)NC(=O)c4c(N)nn5cccnc45)n(-c4ccccc4)c(=O)c23)ccn1 [Compound 138] | < 100 | 1000 to 10000 | 1000 to 10000 | > 10000 | < 100 | 100 to 1000
3 | CC(C)c1ccn2nc(N)c(C(=O)N[C@@H](C)c3cc4cccc(Cl)c4c(=O)n3-c3ccccc3)c2n1 [Compound 178] | < 100 | 1000 to 10000 | 1000 to 10000 | > 10000 | 100 to 1000 | 1000 to 10000
4 | C[C@H](NC(=O)c1c(N)nn2cccnc12)c1cc2cccc(CO)c2c(=O)n1-c1ccccc1 [Compound 228] | < 100 | 1000 to 10000 | 1000 to 10000 | > 10000 | 100 to 1000 | 100 to 1000
5 | CNS(=O)(=O)c1cccc(-c2cnc(N)c(C(=O)N[C@@H](C)c3cc4cccc(Cl)c4c(=O)n3-c3ccccc3)n2)c1 [Compound 83] | < 100 | 100 to 1000 | 1000 to 10000 | 1000 to 10000 | < 100 | 100 to 1000
6 | C[C@H](NC(=O)c1cncc2cccnc12)c1cc2cccc(Cl)c2c(=O)n1-c1ccc(F)cc1 [Compound 65] | < 100 | 1000 to 10000 | 1000 to 10000 | 1000 to 10000 | < 100 | 1000 to 10000
7 | C[C@H](NC(=O)c1nc(-c2cccc(S(=O)(=O)NC3CC3)c2)cnc1N)c1cc2cccc(Cl)c2c(=O)n1C [Compound 194] | < 100 | < 100 | 100 to 1000 | 100 to 1000 | < 100 | < 100
8 | C[C@H](NC(=O)c1c(N)nn2cccnc12)c1cc2ccsc2c(=O)n1-c1ccccc1 [Compound 198] | 100 to 1000 | 1000 to 10000 | 1000 to 10000 | > 10000 | 100 to 1000 | 1000 to 10000
9 | C[C@H](NC(=O)c1nc(-c2csc(S(C)(=O)=O)n2)cnc1N)c1cc2cccc(Cl)c2c(=O)n1-c1ccccc1 [Compound 113] | 100 to 1000 | 1000 to 10000 | > 10000 | > 10000 | 1000 to 10000 | 1000 to 10000
10 | C[C@H](NC(=O)c1nc(C#N)cnc1N)c1cc2cccc(Cl)c2c(=O)n1-c1ccccc1 [Compound 111] | 100 to 1000 | 100 to 1000 | 100 to 1000 | > 10000 | < 100 | 100 to 1000
11 | C[C@H](NC(=O)c1c(N)nn2cccnc12)c1cc2cccc(C#CCCNC(=O)[C@H]3CCC(=O)O3)c2c(=O)n1-c1ccccc1 [Compound 161] | < 100 | > 10000 | 1000 to 10000 | 1000 to 10000 | < 100 | 100 to 1000
12 | C[C@H](NC(=O)c1nccnc1N)c1cc2cccc(Cl)c2c(=O)n1-c1ccccc1 [Compound 4, (S)-3-amino-N-(1-(8-chloro-1-oxo-2-phenyl-1,2-dihydroisoquinolin-3-yl)ethyl)pyrazine-2-carboxamide] | < 100 | 100 to 1000 | < 100 | 1000 to 10000 | < 100 | 100 to 1000
13 | C[C@H](NC(=O)c1c(N)nn2cccnc12)c1cc2cccc(-c3cncs3)c2c(=O)n1-c1ccccc1 [Compound 245] | < 100 | > 10000 | 1000 to 10000 | 1000 to 10000 | < 100 | 100 to 1000
14 | C[C@H](NC(=O)c1c(N)nn2cccnc12)c1cc2cccc(-c3cncc(NS(C)(=O)=O)c3)c2c(=O)n1-c1ccccc1 [Compound 120] | 100 to 1000 | > 10000 | 100 to 1000 | 1000 to 10000 | < 100 | 100 to 1000
